In patent US8431395B2, “Pluripotent cells from rat and other species” (The University Court of the University of Edinburgh, priority 2006, dated 2013):

Columns and labels:
[1] = test system: mouse ES cells; test: Culture of pluripotent (ES) cells with inhibitors to promote self renewal; type: cell-based
Excerpt: Mix DMEM/F12-N2 medium with Neurobasal/B27 medium at the ration of 1:1. The media was used to dilute all compounds and grow the cells.

[2] = test system: GSK3; conditions: cited from earlier work
[3] = test system: 3i rat cells; test: Maintenance of undifferentiated rat 3i cells under altered culture conditions; type: cell-based
Excerpt: We investigated the effect of altering the culture conditions on maintenance of the undifferentiated state. […] LIF is not included in culture medium, consistent with the sufficiency of 3i for mouse ES cells. Rat cells transferred from 3i to medium supplemented with serum and LIF or BMP and LIF differentiated into various morphologies and lost expression of Oct4 and Nanog (FIG. 13a). These observations indicate that the 3i rat cells have reduced responsiveness to gp130/Stat3 signalling compared with mouse ES cells^20, 21. This may be a significant contributory factor to previous failures to derive rat ES cells.
Cells cultured without inhibitors differentiated into various morphologies (FIG. 13b). […] These findings are consistent with the hypothesis that blockade of FGF/Erk signaling is the critical requirement to sustain the naïve pluripotent state (Ying et al., submitted).
Recently the derivation of cell lines from post-implantation egg cylinder stage epiblast has been reported in mice and rats^3, 10. […] In contrast the 3i rat cells do contribute to chimaeras. They also express Rex1, Stella (Dppa3) and alkaline phosphatase, markers of ES cells and early epiblast that are absent in EpiSCs. Furthermore 3i rat cells can readily be propagated after dissociation into single cells whereas maintained cell-cell contact appears critical for EpiSCs. […]

Molecule | results as GSK3 inhibitor in culture of pluripotent cells [1] | specificity [2] | fold lower concentration at which fully effective as substitute for SU5402 ([1]; relative to SU5402) | maintenance / propagation of undifferentiated rat cells [3]
Cc1c[nH]c(-c2cnc(NCCNc3ccc(C#N)cn3)nc2-c2ccc(Cl)cc2Cl)n1 [CHIR 99021] | Good results | specific for GSK3 |  | 
CCN(CC)CCCCNc1ncc2cc(-c3cc(OC)cc(OC)c3)c(NC(=O)NC(C)(C)C)nc2n1 [PD173074] |  |  | about 100 fold | 
NC(=O)c1ccc(-c2nc(-c3ccccn3)c(-c3ccc4c(c3)OCO4)[nH]2)cc1 [SB431452] |  |  |  | did not impede propagation
CHIR 98014 | Good results | specific for GSK3 |  | 
